Data published in US20260158017A1, “KIF18A INHIBITOR” (WIGEN BIOMEDICINE TECHNOLOGY (SHANGHAI) CO., LTD., priority 2021, published 2026).

Biological target: T1, Recombinant human KIF18A (1-467His-tagged) protein (Homo sapiens, UniProt Q8NI77)
T1 construct: Recombinant human KIF18A (1-467His-tagged) protein; His; made in house
Assay: KIF18A enzyme assay (microtubule-stimulated ATPase activity, ADP-Glo)
Type: biochemical
Details: 30 nM KIF18A, 75 μM ATP, 30 μg/mL pig microtubules; read-out: Inhibitory activity against KIF18A IC50
Procedure, shortened: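 Buffer 15 mM Tris pH 7.5, 10 mM MgCl2, 0.01% Pluronic F-68, 1 μM paclitaxel, 30 μg/mL pig microtubules; reactions at room temperature. IC50 from inhibition relative to DMSO.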

T1 sequence (Q8NI77 1-467): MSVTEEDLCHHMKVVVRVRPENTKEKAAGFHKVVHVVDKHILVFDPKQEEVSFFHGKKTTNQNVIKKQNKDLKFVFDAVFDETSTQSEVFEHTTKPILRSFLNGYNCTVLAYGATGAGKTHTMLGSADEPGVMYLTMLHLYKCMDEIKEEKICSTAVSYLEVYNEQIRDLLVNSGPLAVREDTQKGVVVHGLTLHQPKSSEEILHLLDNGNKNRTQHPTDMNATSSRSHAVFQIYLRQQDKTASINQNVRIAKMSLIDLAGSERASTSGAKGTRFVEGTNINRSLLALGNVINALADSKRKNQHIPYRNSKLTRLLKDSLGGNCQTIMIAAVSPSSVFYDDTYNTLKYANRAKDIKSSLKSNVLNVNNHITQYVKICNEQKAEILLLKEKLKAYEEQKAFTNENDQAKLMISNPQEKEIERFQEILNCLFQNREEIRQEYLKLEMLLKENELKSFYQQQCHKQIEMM
T1 sequence (P02550 whole entry partner): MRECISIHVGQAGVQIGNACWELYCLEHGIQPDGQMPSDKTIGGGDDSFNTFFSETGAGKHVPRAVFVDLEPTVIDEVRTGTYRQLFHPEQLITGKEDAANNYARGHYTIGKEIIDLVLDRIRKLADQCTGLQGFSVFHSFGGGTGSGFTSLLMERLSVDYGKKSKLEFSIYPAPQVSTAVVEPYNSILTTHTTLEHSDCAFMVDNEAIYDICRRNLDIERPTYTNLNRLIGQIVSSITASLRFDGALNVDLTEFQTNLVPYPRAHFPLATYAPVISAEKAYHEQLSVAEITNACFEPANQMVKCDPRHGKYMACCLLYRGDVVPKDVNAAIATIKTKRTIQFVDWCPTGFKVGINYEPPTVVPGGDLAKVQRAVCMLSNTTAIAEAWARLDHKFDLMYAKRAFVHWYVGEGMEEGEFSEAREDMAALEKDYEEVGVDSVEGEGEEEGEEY
T1 sequence (P02554 whole entry partner): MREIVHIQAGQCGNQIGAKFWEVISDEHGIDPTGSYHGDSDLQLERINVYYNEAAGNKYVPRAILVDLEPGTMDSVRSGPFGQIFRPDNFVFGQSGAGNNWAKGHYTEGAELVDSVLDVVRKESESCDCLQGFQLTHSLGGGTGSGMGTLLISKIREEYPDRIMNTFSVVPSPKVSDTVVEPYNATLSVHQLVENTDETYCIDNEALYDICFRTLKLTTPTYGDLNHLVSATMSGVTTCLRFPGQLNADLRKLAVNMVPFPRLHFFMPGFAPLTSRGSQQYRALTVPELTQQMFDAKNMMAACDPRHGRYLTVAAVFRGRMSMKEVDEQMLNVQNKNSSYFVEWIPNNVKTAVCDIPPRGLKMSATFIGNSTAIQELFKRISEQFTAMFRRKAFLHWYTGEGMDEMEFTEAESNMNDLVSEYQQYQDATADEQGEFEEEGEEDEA

| Structure (SMILES) | IC50 [nM] |
| --- | --- |
| O=C(Nc1ccc([N+](=O)[O-])c(OCCC(F)(F)F)c1)c1ccc(NS(=O)(=O)CCO)cc1N1CCC2(CC1)CC2 [Compound 5] | ≤ 100 |
| O=C(Nc1ccc([N+](=O)[O-])c(N2CC3CC3C2)c1)c1ccc(NS(=O)(=O)CCO)cc1N1CCC2(CC1)CC2 (stereo not shown) [Compound 10] | ≤ 100 |
| C[C@@H]1CN(c2nc(C(=O)Nc3cnc(S(=O)(=O)N[C@@H](C)CO)cc3N3CCC4(CC3)CC4)ccc2[N+](=O)[O-])CCO1 [Compound 255] | 100 to 500 |
| C[C@@H]1CN(c2nc(NC(=O)c3cnc(NS(=O)(=O)[C@H](C)CO)cc3N3CCC4(CC3)CC4)ccc2OCF)CCO1 [Compound 496] | ≤ 100 |
| O=C(Nc1ccc([N+](=O)[O-])c(OC2CCC2)n1)c1cnc(S(=O)(=O)NCCO)cc1N1CCC2(CC1)CC2 [Compound 151] | ≤ 100 |
| CSc1ccc(NC(=O)c2cnc(NS(=O)(=O)CCO)cc2N2CCC3(CC2)CC3)nc1N1CCC(F)(F)CC1 [Compound 625] | ≤ 100 |
| O=C(Nc1ccc(NS(=O)(=O)CCO)cc1N1CCC2(CC1)CC2)c1ccc([N+](=O)[O-])c(N2CC3CC3C2)c1 (stereo not shown) [Compound 42] | ≤ 100 |
| C[C@@H](CO)NS(=O)(=O)c1ccc(NC(=O)c2ccc(OCF)c(N3CCC(F)(F)CC3)c2)c(N2CCC3(CC2)CC3)c1 [Compound 541] | 100 to 500 |
| C[C@@H]1CN(c2nc(NC(=O)c3ccc(NS(=O)(=O)[C@H](C)CO)cc3N3CCC4(CC3)CC4)ccc2[N+](=O)[O-])CCO1 [Compound 80] | ≤ 100 |
| O=C(Nc1ccc(NS(=O)(=O)CCO)cc1N1CCC2(CC1)CC2)c1ccc([N+](=O)[O-])c(OC2CCC2)c1 [Compound 39] | ≤ 100 |
| COc1ccc(C(=O)Nc2ccc(S(=O)(=O)NCCO)cc2N2CCC3(CC2)CC3)nc1N1CC(F)(F)C1 [Compound 340] | ≤ 100 |
| O=C(Nc1cnc(NS(=O)(=O)CCO)cc1N1CCC2(CC1)CC2)c1ccc([N+](=O)[O-])c(N2CCC(F)CC2)c1 [Compound 201] | ≤ 100 |
| COc1ccc(NC(=O)c2ccc(NS(=O)(=O)[C@@H](C)CO)cc2N2CCC3(CC2)CC3)nc1N1CCC(F)(F)CC1 [Compound 269] | ≤ 100 |
| C[C@H]1CN(c2cc(C(=O)Nc3ccc(NS(=O)(=O)CCO)cc3N3CCC4(CC3)CC4)ccc2OCF)CCO1 [Compound 515] | ≤ 100 |
| O=C(Nc1ccc(OCF)c(N2CCOCC2)c1)c1ccc(NS(=O)(=O)CCO)cc1N1CCC2(CC1)CC2 [Compound 396] | ≤ 100 |
| O=C(Nc1ccc(S(=O)(=O)NCCO)cc1N1CCC2(CC1)CC2)c1ccc(OCF)c(OCCC(F)(F)F)n1 [Compound 565] | 100 to 500 |
| CC(C)(CO)Nc1cc(C(=O)Nc2cnc(NS(=O)(=O)CCO)cc2N2CCC3(CC2)CC3)ccc1[N+](=O)[O-] [Compound 203] | ≤ 100 |
| O=C(Nc1ccc(NS(=O)(=O)CCO)cc1N1CCC2(CC1)CC2)c1ccc([N+](=O)[O-])c(N2CCC3(CC3)C2)n1 [Compound 166] | ≤ 100 |
| C[C@H]1CN(c2cc(C(=O)Nc3ccc(S(=O)(=O)NCCO)cc3N3CCC4(CC3)CC4)ccc2OCF)CCO1 [Compound 531] | 100 to 500 |
| CC1(F)CCN(c2cc(C(=O)Nc3cnc(S(=O)(=O)NCCO)cc3N3CCC4(CC3)CC4)ccc2[N+](=O)[O-])C1 (stereo not shown) [Compound 216] | 100 to 500 |
| C[C@H]1CN(c2nc(NC(=O)c3ccc(NS(=O)(=O)CCO)cc3N3CCC4(CC3)CC4)ccc2[N+](=O)[O-])CCO1 [Compound 67] | ≤ 100 |

| Structure (SMILES) | IC50 [nM] |
| --- | --- |
| COc1ccc(C(=O)Nc2cnc(S(=O)(=O)NCCO)cc2N2CCC3(CC2)CC3)nc1N1CCC(F)(F)CC1 [Compound 369] | ≤ 100 |
| O=C(Nc1ccc(S(=O)(=O)NCCO)cc1N1CCC2(CC1)CC2)c1ccc([N+](=O)[O-])c(N2CCC3(CC3)C2)c1 [Compound 54] | 100 to 500 |
| COc1ccc(NC(=O)c2cnc(NS(=O)(=O)[C@H](C)CO)cc2N2CCC3(CC2)CC3)nc1N1CCO[C@H](C)C1 [Compound 304] | ≤ 100 |
| COc1ccc(C(=O)Nc2ccc(NS(=O)(=O)CCO)cc2N2CCC3(CC2)CC3)nc1N1CCC2(CC2)C1 [Compound 326] | ≤ 100 |
| O=C(Nc1ccc([N+](=O)[O-])c(N2CC3CC3C2)c1)c1cnc(S(=O)(=O)NCCO)cc1N1CCC2(CC1)CC2 (stereo not shown) [Compound 122] | ≤ 100 |
| COc1ccc(C(=O)Nc2ccc(S(=O)(=O)N[C@H](C)CO)cc2N2CCC3(CC2)CC3)nc1N1CCC(F)(F)CC1 [Compound 350] | ≤ 100 |
| O=C(Nc1ccc([N+](=O)[O-])c(N2CCC(F)CC2)n1)c1ccc(S(=O)(=O)NCCO)cc1N1CCC2(CC1)CC2 [Compound 89] | ≤ 100 |
| C[C@H](CO)S(=O)(=O)Nc1cc(N2CCC3(CC2)CC3)c(C(=O)Nc2ccc([N+](=O)[O-])c(N3CCC(F)(F)CC3)n2)cn1 [Compound 142] | ≤ 100 |
| O=C(Nc1ccc([N+](=O)[O-])c(OCCC(F)(F)F)n1)c1cnc(NS(=O)(=O)CCO)cc1N1CCC2(CC1)CC2 [Compound 133] | ≤ 100 |
| O=C(Nc1ccc(OCF)c(N2CCC(F)(F)CC2)c1)c1ccc(S(=O)(=O)NCCO)cc1N1CCC2(CC1)CC2 [Compound 401] | ≤ 100 |
| O=C(Nc1ccc(NS(=O)(=O)CCO)cc1N1CCC2(CC1)CC2)c1ccc(OCF)c(N2CCC3(CC3)C2)n1 [Compound 550] | ≤ 100 |
| C[C@H]1CN(c2nc(NC(=O)c3ccc(NS(=O)(=O)CCO)cc3N3CCC4(CC3)CC4)ccc2OCF)CCO1 [Compound 419] | ≤ 100 |
| COc1ccc(C(=O)Nc2ccc(NS(=O)(=O)[C@@H](C)CO)cc2N2CCC3(CC2)CC3)nc1N1CCO[C@H](C)C1 [Compound 335] | ≤ 100 |
| O=C(Nc1ccc(OCF)c(OC2CCC2)n1)c1cnc(S(=O)(=O)NCCO)cc1N1CCC2(CC1)CC2 [Compound 503] | ≤ 100 |
| C[C@@H]1CN(c2nc(C(=O)Nc3ccc(NS(=O)(=O)[C@H](C)CO)cc3N3CCC4(CC3)CC4)ccc2OCF)CCO1 [Compound 560] | ≤ 100 |
| CC(C)(CO)Nc1cc(C(=O)Nc2ccc(S(=O)(=O)NCCO)cc2N2CCC3(CC2)CC3)ccc1[N+](=O)[O-] [Compound 59] | 100 to 500 |
| O=C(Nc1cnc(NS(=O)(=O)CCO)cc1N1CCC2(CC1)CC2)c1ccc([N+](=O)[O-])c(N2CC(F)(F)C2)n1 [Compound 228] | ≤ 100 |
| C[C@H]1CN(c2nc(NC(=O)c3cnc(S(=O)(=O)NCCO)cc3N3CCC4(CC3)CC4)ccc2OCF)CCO1 [Compound 499] | ≤ 100 |
| C[C@@H]1CN(c2cc(NC(=O)c3cnc(S(=O)(=O)NCCO)cc3N3CCC4(CC3)CC4)ccc2[N+](=O)[O-])CCO1 [Compound 114] | ≤ 100 |
| O=C(Nc1ccc(S(=O)(=O)NCCO)cc1N1CCC2(CC1)CC2)c1ccc(OCF)c(OCCC(F)(F)F)c1 [Compound 533] | 100 to 500 |
| C[C@H](CO)S(=O)(=O)Nc1cc(N2CCC3(CC2)CC3)c(NC(=O)c2ccc([N+](=O)[O-])c(N3CCC(F)(F)CC3)n2)cn1 [Compound 238] | ≤ 100 |

| Structure (SMILES) | IC50 [nM] |
| --- | --- |
| O=C(Nc1ccc(OCF)c(N2CCC3(CC3)C2)n1)c1cnc(NS(=O)(=O)CCO)cc1N1CCC2(CC1)CC2 [Compound 486] | ≤ 100 |
| C[C@H](CO)S(=O)(=O)Nc1cc(N2CCC3(CC2)CC3)c(C(=O)Nc2ccc(OCF)c(N3CCC(F)(F)CC3)c2)cn1 [Compound 462] | ≤ 100 |
| O=C(Nc1ccc(OCF)c(OCCC(F)(F)F)n1)c1cnc(S(=O)(=O)NCCO)cc1N1CCC2(CC1)CC2 [Compound 501] | ≤ 100 |
| CC(C)(CO)Nc1nc(C(=O)Nc2cnc(S(=O)(=O)NCCO)cc2N2CCC3(CC2)CC3)ccc1OCF [Compound 507] | ≤ 100 |
| C[C@H](CO)NS(=O)(=O)c1ccc(C(=O)Nc2ccc(OCF)c(N3CCO[C@H](C)C3)n2)c(N2CCC3(CC2)CC3)c1 [Compound 448] | ≤ 100 |
| O=C(Nc1cnc(NS(=O)(=O)CCO)cc1N1CCC2(CC1)CC2)c1ccc([N+](=O)[O-])c(N2CCC3(CC3)C2)c1 [Compound 198] | ≤ 100 |
| O=C(Nc1ccc([N+](=O)[O-])c(N2CCC(F)(F)CC2)c1)c1ccc(S(=O)(=O)NCCO)cc1N1CCC2(CC1)CC2 [Compound 17] | ≤ 100 |
| O=C(Nc1ccc([N+](=O)[O-])c(N2CC3CC3C2)c1)c1cnc(NS(=O)(=O)CCO)cc1N1CCC2(CC1)CC2 (stereo not shown) [Compound 106] | ≤ 100 |
| C[C@@H]1CN(c2nc(NC(=O)c3cnc(S(=O)(=O)N[C@@H](C)CO)cc3N3CCC4(CC3)CC4)ccc2OCF)CCO1 [Compound 511] | ≤ 100 |
| COc1ccc(NC(=O)c2ccc(NS(=O)(=O)[C@@H](C)CO)cc2N2CCC3(CC2)CC3)nc1N1CCO[C@H](C)C1 [Compound 271] | ≤ 100 |
| COc1ccc(C(=O)Nc2ccc(NS(=O)(=O)CCO)cc2N2CCC3(CC2)CC3)nc1OC1CCC1 [Compound 327] | ≤ 100 |
| COc1ccc(NC(=O)c2ccc(S(=O)(=O)N[C@@H](C)CO)cc2N2CCC3(CC2)CC3)nc1N1CCO[C@H](C)C1 [Compound 287] | ≤ 100 |
| CC(C)(CO)Nc1cc(NC(=O)c2ccc(S(=O)(=O)NCCO)cc2N2CCC3(CC2)CC3)ccc1[N+](=O)[O-] [Compound 27] | ≤ 100 |
| O=C(Nc1ccc(NS(=O)(=O)CCO)cc1N1CCC2(CC1)CC2)c1ccc([N+](=O)[O-])c(N2CCOCC2)n1 [Compound 172] | ≤ 100 |
| O=C(Nc1cnc(S(=O)(=O)NCCO)cc1N1CCC2(CC1)CC2)c1ccc([N+](=O)[O-])c(OCCC(F)(F)F)n1 [Compound 245] | 100 to 500 |
| CC(C)(CO)Nc1cc(NC(=O)c2cnc(NS(=O)(=O)CCO)cc2N2CCC3(CC2)CC3)ccc1OCF [Compound 459] | ≤ 100 |
| C[C@@H](CO)S(=O)(=O)Nc1ccc(NC(=O)c2ccc([N+](=O)[O-])c(N3CCC(F)(F)CC3)n2)c(N2CCC3(CC2)CC3)c1 [Compound 173] | ≤ 100 |
| COc1ccc(C(=O)Nc2ccc(S(=O)(=O)N[C@@H](C)CO)cc2N2CCC3(CC2)CC3)nc1N1CCO[C@H](C)C1 [Compound 351] | ≤ 100 |
| CC(C)(CO)Nc1cc(NC(=O)c2cnc(NS(=O)(=O)CCO)cc2N2CCC3(CC2)CC3)ccc1[N+](=O)[O-] [Compound 107] | ≤ 100 |
